According to the CheMixHub viscosity set:
Values joined by “and” are separate entries in the source; they are usually repeats but may differ in a detail not shown here. Equal values may be shown once.

What was measured:
[1] = xn = mol fraction of the nth substance listed

COC(C)OC
Settings | viscosity [mPa·s]
298.15 K, 101 kPa | 4.04

CC[N+](C)(CC)CCOC.O=S(=O)([N-]S(=O)(=O)C(F)(F)F)C(F)(F)F
101 kPa
Settings | viscosity [mPa·s]
293.15 K | 162.2
298.15 K | 119.2
303.15 K | 89.7
308.15 K | 67.72
313.15 K | 53.02
318.15 K | 40.98
323.15 K | 33.06

CCCC[P+](CC)(CC)CC.N#Cc1ccc[n-]1
100 kPa
Settings | viscosity [mPa·s]
293.15 K | 187
298.15 K | 137
303.15 K | 104
313.15 K | 62

CN(C)c1ccccc1
viscosity
Settings | 100 kPa | 101 kPa | 101.3 kPa
293.15 K | 1.415 mPa·s | – | –
298 K | – | 1.283 mPa·s | 1.282 mPa·s
298.15 K | 1.302 mPa·s | – | –
303 K | – | 1.18 mPa·s | 1.177 mPa·s
303.15 K | 1.206 mPa·s | 1.18 mPa·s and 1.177 mPa·s and 1.203 mPa·s | –
308 K | – | 1.096 mPa·s | 1.1 mPa·s
308.15 K | 1.123 mPa·s | – | –
313 K | – | 1.02 mPa·s | 1.02 mPa·s
313.15 K | 1.056 mPa·s | – | –
313.35 K | – | 1.021 mPa·s | –
318 K | – | 0.968 mPa·s | 0.967 mPa·s
318.15 K | 0.9805 mPa·s | 0.931 mPa·s and 0.8294 mPa·s and 0.9484 mPa·s | –
323.15 K | 0.9197 mPa·s | 0.854 mPa·s | –

O=C1CCCCCO1
101 kPa
Settings | viscosity [mPa·s]
303.15 K | 4.885
308.15 K | 4.324
313.15 K | 3.818
318.15 K | 3.42

CC(C)(N)CO
viscosity
Settings | 298.15 K | 303.15 K | 308.15 K | 313.15 K | 318.15 K | 323.15 K
100 kPa | 132.3 mPa·s | 98.48 mPa·s | 69.98 mPa·s | 46.99 mPa·s | 32.2 mPa·s | 24.45 mPa·s
101 kPa | – | 89 mPa·s and 99.48 mPa·s | 60.8 mPa·s | 43.7 mPa·s and 47.25 mPa·s | 32.2 mPa·s | 23.05 mPa·s and 24.33 mPa·s

CCCCC(C)O (stereo not given)
viscosity
Settings | 298.15 K | 303.15 K | 308.15 K | 313.15 K | 318.15 K
100 kPa | – | 3.29 mPa·s | 2.71 mPa·s | 2.28 mPa·s | 1.93 mPa·s
101.33 kPa | 4.047 mPa·s and 4.047 mPa·s | – | – | – | –

CCCCOC(=O)c1ccccc1C(=O)OCCCC
Settings | viscosity [mPa·s]
303.15 K, 101.33 kPa | 13.33

CCCCC(C)CC (stereo not given)
100 kPa
Settings | viscosity [mPa·s]
293.15 K | 0.512
298.15 K | 0.485
303.15 K | 0.462
308.15 K | 0.44
313.15 K | 0.422

Cc1ccc(C(C)C)cc1
Settings | viscosity [mPa·s]
293.15 K, 101 kPa | 0.826

FC(F)(F)c1ccccc1
viscosity [mPa·s]
Settings | 298.15 K | 323.15 K
101 kPa | 0.53 | 0.46
101.33 kPa | 0.5524 | –

CCCCN(CCCC)CCCC
viscosity
Settings | 293.15 K | 298.15 K | 303.15 K | 308.15 K | 313.15 K | 318.15 K | 323.15 K
100 kPa | – | – | 1.14 mPa·s and 1 mPa·s | 1.09 mPa·s | – | – | –
101 kPa | – | 1.273 mPa·s | 1.157 mPa·s and 1.155 mPa·s | 1.064 mPa·s and 1.069 mPa·s | 0.9845 mPa·s and 1 mPa·s | 0.9086 mPa·s | 0.8422 mPa·s
101.3 kPa | – | – | – | – | 0.9974 mPa·s | – | –
101.33 kPa | 1.45 mPa·s | 1.28 mPa·s | – | 1.07 mPa·s | 0.99 mPa·s | – | 0.863 mPa·s

CCCCCCc1ccccc1
Settings | viscosity [mPa·s]
303.15 K, 102 kPa | 1.4

CCCCCCCCCCCCCCCCCC[P+](CCCC)(CCCC)CCCC.N#Cc1ccc[n-]1
100 kPa
Settings | viscosity [mPa·s]
293.15 K | 742
298.15 K | 519
303.15 K | 379
313.15 K | 208

CC1CCC(O)CC1 (stereo not given)
Settings | viscosity [mPa·s]
293.15 K, 101 kPa | 30.4

[2H]O[2H]
101 kPa
Settings | viscosity
293.15 K | 1.253 mPa·s
297.15 K | 1.128 mPa·s
299.15 K | 1.072 mPa·s
300.15 K | 0.994 mPa·s and 1.05 mPa·s
301.15 K | 1.026 mPa·s
302.15 K | 1 mPa·s
303.1 K | 0.973 mPa·s
303.15 K | 0.981 mPa·s
304.15 K | 0.964 mPa·s
305.15 K | 0.884 mPa·s and 0.942 mPa·s
306.15 K | 0.924 mPa·s
307.15 K | 0.901 mPa·s
308.15 K | 0.879 mPa·s
309.15 K | 0.861 mPa·s
310.15 K | 0.842 mPa·s
311.15 K | 0.826 mPa·s
312.15 K | 0.809 mPa·s
313.1 K | 0.785 mPa·s
313.15 K | 0.791 mPa·s
323.1 K | 0.649 mPa·s

C=CC#N
Settings | viscosity
293.15 K, 101 kPa | 0.362 mPa·s
298.15 K, 101 kPa | 0.342 mPa·s
298.15 K, 101.33 kPa | 0.339 mPa·s
303.15 K, 101 kPa | 0.325 mPa·s
303.15 K, 101.3 kPa | 0.3111 mPa·s and 0.3111 mPa·s
303.15 K, 101.33 kPa | 0.324 mPa·s and 0.324 mPa·s and 0.326 mPa·s
307.4 K, 101.33 kPa | 0.76 mPa·s and 0.53 mPa·s and 0.584 mPa·s
308.15 K, 101 kPa | 0.3296 mPa·s
313.15 K, 101 kPa | 0.305 mPa·s
323.15 K, 101 kPa | 0.287 mPa·s

CC(CC(C)(C)C)CC(C)(C)C
viscosity [mPa·s]
Settings | 293.15 K | 298.15 K | 313.15 K | 323.15 K
101.33 kPa | – | 1.217 | – | –
102 kPa | 1.32 | – | 0.956 | 0.828

Cn1ccnc1
viscosity
Settings | 298.15 K | 308.15 K | 318.15 K
100 kPa | 1.778 mPa·s and 1.778 mPa·s | 1.482 mPa·s and 1.482 mPa·s | 1.267 mPa·s and 1.267 mPa·s
101 kPa | 1.68 mPa·s | 1.382 mPa·s and 1.415 mPa·s | 1.213 mPa·s

CC(CC(C)(C)C)CP(=O)([O-])CC(C)CC(C)(C)C.CCCCCCCCCCCCCC[P+](CCCCCC)(CCCCCC)CCCCCC
101 kPa
Settings | viscosity [mPa·s]
303.15 K | 757
313.15 K | 439
323.15 K | 264

CC[n+]1cc[nH]c1.O=S(=O)([N-]S(=O)(=O)C(F)(F)F)C(F)(F)F
Settings | viscosity [mPa·s]
297.55 K, 101 kPa | 57.1

CCC(C)(C)O
viscosity
Settings | 298.15 K | 303.15 K | 308.15 K | 313.15 K | 318.15 K | 323.15 K
101 kPa | 3.506 mPa·s and 3.532 mPa·s and 4.413 mPa·s | – | – | – | 1.681 mPa·s | –
101.3 kPa | 3.52 mPa·s | 2.87 mPa·s | 2.37 mPa·s | 1.96 mPa·s | – | –
101.33 kPa | – | 2.854 mPa·s | – | 1.976 mPa·s | – | 1.416 mPa·s

CN(C)c1ccccc1 + CCC(C)O
[1], 303.15 K, 101 kPa
Settings | viscosity [mPa·s]
x1 = 0.0452 | 2.686
x1 = 0.0845 | 2.638
x1 = 0.1321 | 2.582
x1 = 0.1893 | 2.512
x1 = 0.2452 | 2.442
x1 = 0.2756 | 2.402
x1 = 0.3065 | 2.362
x1 = 0.3655 | 2.279
x1 = 0.4292 | 2.183
x1 = 0.4906 | 2.086
x1 = 0.6021 | 1.893
x1 = 0.7323 | 1.65
x1 = 0.8911 | 1.353

O=C1c2ccccc2C(=O)C1(O)O + CCCCCCCCCO
[1], 101.3 kPa, x1 = 0.25
Settings | viscosity [mPa·s]
293.15 K | 38.14
298.15 K | 27.87
303.15 K | 21.73
308.15 K | 17.37
313.15 K | 13.74
318.15 K | 11.01
323.15 K | 9.139

CC(C)(C)Br + CC(C)(C)O
viscosity [mPa·s], [1], 101.3 kPa
Settings | x1 = 0.1003 | x1 = 0.2034 | x1 = 0.3015 | x1 = 0.4024 | x1 = 0.5028 | x1 = 0.6049 | x1 = 0.705 | x1 = 0.7981 | x1 = 0.8958
298.15 K | 2.648 | 1.858 | 1.458 | 1.208 | 1.026 | 0.9136 | 0.8363 | 0.7868 | 0.7483
313.15 K | 1.504 | 1.165 | 0.9832 | 0.8491 | 0.7568 | 0.6855 | 0.6408 | 0.6119 | 0.595

CCCCOC(=O)c1ccccc1C(=O)OCCCC + CCO
[1], 303.15 K, 101.33 kPa
Settings | viscosity [mPa·s]
x1 = 0.0982 | 1.555
x1 = 0.1991 | 2.302
x1 = 0.4046 | 4.211
x1 = 0.5046 | 5.31
x1 = 0.5634 | 6.002
x1 = 0.694 | 7.761
x1 = 0.807 | 9.476
x1 = 0.8877 | 10.91
x1 = 0.9316 | 11.68

O=C[C@@H](O)[C@@H](O)[C@H](O)[C@H](O)CO + O
viscosity [mPa·s], [1], 101 kPa
Settings | 293.15 K | 303.15 K | 308.15 K | 313.15 K
x1 = 0.0026 | 1.052 | 0.8259 | – | 0.6702
x1 = 0.005 | 1.116 | 0.8625 | 0.7717 | 0.6965
